Assay results as given in patent US12187706B2, “NLRP3 modulators” (INNATE TUMOR IMMUNITY, INC., priority 2019, dated 2025).

molecular target: T1, NLRP3 (Homo sapiens, UniProt Q96P20); experiment: Measurement of IL-1β production in PMA-differentiated THP-1 cells (NLRP3 hIL1B); type: cell-based
T1 construct: host or cells: PMA-differentiated THP-1 cells
Procedure: Measurement of IL-1β Production in PMA-Differentiated THP-1 Cells
THP-1 cells were purchased from the American Type Culture Collection and sub-cultured according to instructions from the supplier. Prior to experiments, cells were cultured in RPMI 1640 containing 10% heat inactivated FBS, penicillin (100 units/ml) and streptomycin (100 μg/ml), and maintained in log phase prior to experimental setup. Prior to the experiment THP-1 were treated with PMA (Phorbol 12-myristate 13-acetate) (10 μg/ml) for 24 hours. The day of the experiment the media was removed and attaching cells were treated with trypsin for 2 minutes, cells were then collected, washed with PBS (phosphate buffer saline), spin down, resuspended in 2% heat inactivated FBS with RPMI at a concentration of 1×10^6 cells/ml, and 100 μl was plated in a 96 well plate. Compounds were dissolved in dimethyl sulfoxide (DMSO) and added to the culture medium to achieve desired concentration (e.g. 100, 30, 10, 3, 1, 0.3 or 0.1 μM). Cells were incubated with compounds for 4 hours. Cell free supernatant was collected and the production of IL-1β was evaluated by ELISA. A vehicle only control was run concurrently with each experiment. Final DMSO concentration was 1%.
Measurement of IL-1β Production in PMA-Differentiated THP-1 Cells (Alternative Procedure)
THP-1 cells were purchased from the American Type Culture Collection and sub-cultured according to instructions from the supplier. Prior to experiments, cells were cultured in RPMI 1640 containing 10% heat inactivated FBS, penicillin (100 units/ml), streptomycin (100 μg/ml), HEPES (10 mM) and sodium pyruvate (1 mM) and maintained in log phase prior to experimental setup. Prior to the experiment, THP-1 cells were treated with PMA (Phorbol 12-myristate 13-acetate) (20 μg/ml) overnight. The day of the experiment, the media was removed and attached cells were treated with trypsin for 2 minutes, cells were then collected, washed with PBS (phosphate buffer saline), pelleted by centrifugation and resuspended in 2% heat inactivated FBS with RPMI at a concentration of 50,000 cells/well in a 384 well plate. Cell free supernatant was collected and the production of IL-1β was evaluated by ELISA. Compounds were dissolved in dimethyl sulfoxide (DMSO) and added to the culture medium to achieve desired concentration (e.g. 100, 30, 10, 3, 1, 0.3 or 0.1 μM). Cells were incubated with compounds for 2 hours. A vehicle only control was run concurrently with each experiment. Final DMSO concentration was 1%.
Measurement of IL-1β Production—hTRF Protocol (Second Alternative Procedure)
Serial dilutions of compounds in DMSO were added to low volume 384 well plates at 100 nl/well using an ECHO 550 acoustic dispenser (Labcyte) to achieve final starting concentration of 10 μM in assay.
THP-1 cells in RPMI (Gibco, 11875) media with 10% FBS at a density of 1×10^6 cell/ml in a T175 flask were treated with a final concentration of phorbol 12-myristate 13-acetate (PMA) (Sigma, P1585) of 50 ng/ml overnight at 37° C. at 5% CO2 for differentiation. Cells were harvested the next day after rinsing well with dPBS using 0.5% trypsin. A cell solution was prepared of 1×10^6 cells/ml for 50,000 cells in 50 μl/well in RPMI media with 2% FBS. Cells were plated using a multichannel pipette onto the compound dilutions in Greiner, 384 well, black clear bottom tissue culture treated plates (781090). The plates were incubated in 37° C. incubator at 5% CO2 for 2 hours.
After the 2 hour incubation, the cell plates were spun in the centrifuge for 5 minutes at 1200 rpm. Using the Felix (CyBio), 8 μl of the supernatant was transferred to 384 well, low volume, white proxy plates. (Perkin Elmer, 6008230). A human IL1beta hTRF kit was used to analyze the supernatant (CISBIO, 62HIL1BPEG). The kit instructions were followed for preparing the IL1Beta standard curve and then the antibodies from the kit were diluted 1:40 rather than 1:20 as kit instructed.

T1 sequence (Q96P20 whole entry): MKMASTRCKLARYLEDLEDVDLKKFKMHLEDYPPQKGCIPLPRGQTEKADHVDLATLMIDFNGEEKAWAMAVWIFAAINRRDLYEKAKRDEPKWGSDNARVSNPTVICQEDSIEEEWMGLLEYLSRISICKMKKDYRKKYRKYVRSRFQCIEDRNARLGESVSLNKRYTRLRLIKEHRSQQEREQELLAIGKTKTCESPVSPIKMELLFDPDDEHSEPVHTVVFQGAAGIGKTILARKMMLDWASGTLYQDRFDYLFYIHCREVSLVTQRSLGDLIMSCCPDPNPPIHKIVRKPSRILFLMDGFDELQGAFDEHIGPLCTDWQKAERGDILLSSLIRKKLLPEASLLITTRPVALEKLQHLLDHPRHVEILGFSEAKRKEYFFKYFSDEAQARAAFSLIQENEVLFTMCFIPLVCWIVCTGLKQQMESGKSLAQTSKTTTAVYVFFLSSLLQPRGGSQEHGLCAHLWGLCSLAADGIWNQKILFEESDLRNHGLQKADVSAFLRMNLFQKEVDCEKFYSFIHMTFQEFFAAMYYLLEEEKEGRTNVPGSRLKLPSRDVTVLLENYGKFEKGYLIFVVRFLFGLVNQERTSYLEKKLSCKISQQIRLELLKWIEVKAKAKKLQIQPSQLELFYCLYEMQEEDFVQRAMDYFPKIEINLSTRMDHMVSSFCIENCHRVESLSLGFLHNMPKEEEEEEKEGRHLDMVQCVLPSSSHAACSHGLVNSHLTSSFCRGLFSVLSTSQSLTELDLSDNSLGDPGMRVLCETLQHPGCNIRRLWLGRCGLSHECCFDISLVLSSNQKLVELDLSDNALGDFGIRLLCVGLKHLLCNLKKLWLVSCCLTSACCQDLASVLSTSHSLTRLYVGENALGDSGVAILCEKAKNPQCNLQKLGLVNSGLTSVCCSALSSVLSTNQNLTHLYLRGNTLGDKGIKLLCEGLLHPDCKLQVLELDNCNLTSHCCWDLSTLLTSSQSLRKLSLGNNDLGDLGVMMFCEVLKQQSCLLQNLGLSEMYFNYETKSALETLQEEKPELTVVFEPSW

Compared with CC(CCO)Nc1nc(N)nc2cc(-c3ccn[nH]3)ccc12 (single isomer, unassigned) [Example 201, 3-((2-amino-7-(1H-pyrazol-5-yl)quinazolin-4-yl)amino)butan-1-ol], Nc1nc(NCCO)c2ccc(-c3ccn[nH]3)cc2n1 [Example 45] is 6.4-fold higher in EC50: 70 nM for the first, 450 nM for the second. The first is the more potent here.

First: COC(CO)CNc1nc(N)nc2cc(-c3ccn[nH]3)ccc12 (single isomer, unassigned) [Example 202, 3-((2-amino-7-(1H-pyrazol-5-yl)quinazolin-4-yl)amino)-2-methoxypropan-1-ol]
Second: C[C@@H](O)CNc1nc(N)nc2cc(-c3ccn[nH]3)ccc12 [Example 1, (R)-1-((2-amino-7-(1H-pyrazol-5-yl)quinazolin-4-yl)amino)propan-2-ol]
The EC50 of the first is 2-fold higher: 880 nM for the first, 450 nM for the second. The second is the more potent here.

First: COC(CO)CNc1nc(N)nc2cc(-c3ccn[nH]3)ccc12 (single isomer, unassigned) [Example 203, 3-((2-amino-7-(1H-pyrazol-5-yl)quinazolin-4-yl)amino)-2-methoxypropan-1-ol]
Second: C[C@H](O)CNc1nc(N)nc2cc(-c3ccn[nH]3)ccc12 [Example 36]
The EC50 of the first is 1.6-fold lower: 450 nM for the first, 710 nM for the second. The first is the more potent here.

Going from Nc1nc(Nc2cc[nH]n2)c2ccc(-c3ccn[nH]3)cc2n1 [Example 2, N4-(1H-pyrazol-3-yl)-7-(1H-pyrazol-5-yl)quinazoline-2,4-diamine] to Nc1nc(NCc2cc[nH]n2)c2ccc(-c3ccn[nH]3)cc2n1 [Example 27], the EC50 rises from 220 nM to 430 nM (2-fold). The first is the more potent here.

Compared with Nc1nc(NCCCO)c2cc(Cl)c(-c3ccn[nH]3)cc2n1 [Example 3, 3-((2-amino-6-chloro-7-(1H-pyrazol-5-yl)quinazolin-4-yl)amino)propan-1-ol], Nc1nc(NCCCO)c2cc(F)c(-c3ccn[nH]3)cc2n1 [Example 24, 3-((2-amino-6-fluoro-7-(1H-pyrazol-5-yl)quinazolin-4-yl)amino)propan-1-ol] is 4.1-fold lower in EC50: 6840 nM for the first, 1680 nM for the second.

Compared with Cn1ncnc1COc1nc(N)nc2cc(-c3ccn[nH]3)ccc12 [Example 7, 4-((1-methyl-1H-1,2,4-triazol-5-yl)methoxy)-7-(1H-pyrazol-5-yl)quinazolin-2-amine], Nc1nc(NCc2nc[nH]n2)c2ccc(-c3ccn[nH]3)cc2n1 [Example 32] is 7-fold lower in EC50: 4460 nM for the first, 640 nM for the second. The second is the more potent here.

Compared with Nc1nc(NCCCO)c2ccc(-c3ccn[nH]3)cc2n1 [Example 14, 3-((2-amino-7-(1H-pyrazol-3-yl)quinazolin-4-yl)amino)propan-1-ol], N#CCCNc1nc(N)nc2cc(-c3ccn[nH]3)ccc12 [Example 58] is 1.9-fold higher in EC50: 370 nM for the first, 700 nM for the second.

First: Nc1nc(NCCCO)c2c(F)cc(-c3ccn[nH]3)cc2n1 [Example 15, 3-((2-amino-5-fluoro-7-(1H-pyrazol-3-yl)quinazolin-4-yl)amino)propan-1-ol]
Second: Nc1nc(NCCCO)c2c(Cl)cc(-c3cc[nH]n3)cc2n1 [Example 18, 3-((2-amino-5-chloro-7-(1H-pyrazol-3-yl)quinazolin-4-yl)amino)propan-1-ol]
The EC50 of the first is 2.7-fold lower: 240 nM for the first, 650 nM for the second.

First: Nc1nc(NCCCO)c2c(-c3cc[nH]n3)cc(-c3cc[nH]n3)cc2n1 [Example 19, 3-((2-amino-5,7-di(1H-pyrazol-3-yl)quinazolin-4-yl)amino)propan-1-ol]
Second: Cc1cc(-c2cc[nH]n2)cc2nc(N)nc(NCCCO)c12 [Example 21, 3-((2-amino-5-methyl-7-(1H-pyrazol-3-yl)quinazolin-4-yl)amino)propan-1-ol]
The EC50 of the first is 15-fold higher: 9860 nM for the first, 650 nM for the second. The second is the more potent here.

Compared with CN(C)c1cc(-c2cc[nH]n2)cc2nc(N)nc(NCCCO)c12 [Example 22, 3-((2-amino-5-(dimethylamino)-7-(1H-pyrazol-3-yl)quinazolin-4-yl)amino)propan-1-ol], CN(C)CC(O)CNc1nc(N)nc2cc(-c3ccn[nH]3)ccc12 (centres unmarked) [Example 40] is 4.1-fold lower in EC50: 9240 nM for the first, 2240 nM for the second.

First: Nc1nc(N[C@H]2CCOC2)c2ccc(-c3ccn[nH]3)cc2n1 [Example 23, (S)-7-(1H-pyrazol-5-yl)-N4-(tetrahydrofuran-3-yl)quinazoline-2,4-diamine]
Second: Nc1nc(N[C@H]2COCC[C@@H]2O)c2ccc(-c3ccn[nH]3)cc2n1 [Example 53]
The EC50 of the first is 2-fold lower: 670 nM for the first, 1350 nM for the second.

Going from Nc1nc(NCC(F)(F)c2ccccn2)c2ccc(-c3ccn[nH]3)cc2n1 [Example 26] to Nc1nc(NCc2ncccn2)c2ccc(-c3ccn[nH]3)cc2n1 [Example 51], the EC50 rises from 120 nM to 320 nM (2.7-fold). The first is the more potent here.

First: Nc1nc(NCc2nccs2)c2ccc(-c3ccn[nH]3)cc2n1 [Example 28]
Second: Nc1nc(NCc2ncc[nH]2)c2ccc(-c3ccn[nH]3)cc2n1 [Example 39]
The EC50 of the first is 5.5-fold lower: 240 nM for the first, 1320 nM for the second.

CC(C)(O)CNc1nc(N)nc2cc(-c3ccn[nH]3)ccc12 [Example 29] and Nc1nc(NCC2(O)CCC2)c2ccc(-c3ccn[nH]3)cc2n1 [Example 38] are within 1.5-fold of each other in EC50: 390 nM for the first, 320 nM for the second.

Compared with Nc1nc(N[C@@H]2CCC[C@@H]2O)c2ccc(-c3ccn[nH]3)cc2n1 [Example 30], Nc1nc(N[C@H]2CCC[C@H]2O)c2ccc(-c3ccn[nH]3)cc2n1 [Example 66] is 2.5-fold higher in EC50: 300 nM for the first, 740 nM for the second.

Going from Nc1nc(NCCn2cncn2)c2ccc(-c3ccn[nH]3)cc2n1 [Example 31] to Nc1nc(NCc2cncnc2)c2ccc(-c3ccn[nH]3)cc2n1 [Example 49], the EC50 falls from 800 nM to 460 nM (1.7-fold).

Nc1nc(NC(CO)c2cc[nH]n2)c2ccc(-c3ccn[nH]3)cc2n1 (centres unmarked) [Example 33] and Nc1nc(NC(CO)c2ncc[nH]2)c2ccc(-c3ccn[nH]3)cc2n1 (centres unmarked) [Example 34] are within 1.5-fold of each other in EC50: 5390 nM for the first, 7670 nM for the second.

First: Nc1nc(NC(CO)c2nccs2)c2ccc(-c3ccn[nH]3)cc2n1 (centres unmarked) [Example 35]
Second: Nc1nc(NC(CO)c2cccnc2)c2ccc(-c3ccn[nH]3)cc2n1 (centres unmarked) [Example 62]
The EC50 of the first is 4.4-fold higher: 5530 nM for the first, 1250 nM for the second.

Going from Nc1nc(NCC2(O)CCOCC2)c2ccc(-c3ccn[nH]3)cc2n1 [Example 37] to Nc1nc(NC2(CO)CC2)c2ccc(-c3ccn[nH]3)cc2n1 [Example 65], the EC50 falls from 870 nM to 250 nM (3.5-fold).

Compared with Nc1nc(NCC(O)CC(F)(F)F)c2ccc(-c3ccn[nH]3)cc2n1 (centres unmarked) [Example 41], C[C@@H](O)[C@@H](CO)Nc1nc(N)nc2cc(-c3ccn[nH]3)ccc12 [Example 64] is 4.9-fold higher in EC50: 760 nM for the first, 3730 nM for the second.

Going from Nc1nc(NCC2CCC(=O)N2)c2ccc(-c3ccn[nH]3)cc2n1 (centres unmarked) [Example 43] to Nc1nc(N[C@@H]2CC[C@@H](O)C2)c2ccc(-c3ccn[nH]3)cc2n1 [Example 46], the EC50 falls from 1040 nM to 210 nM (5-fold).

Going from Nc1nc(NCc2cc3n(n2)CCCO3)c2ccc(-c3ccn[nH]3)cc2n1 [Example 44] to Nc1nc(NCc2ncco2)c2ccc(-c3ccn[nH]3)cc2n1 [Example 61], the EC50 falls from 2150 nM to 220 nM (9.8-fold).

First: Nc1nc(N[C@H]2CC[C@H](O)C2)c2ccc(-c3ccn[nH]3)cc2n1 [Example 47]
Second: Nc1nc(N[C@H]2CC[C@@H](CO)C2)c2ccc(-c3ccn[nH]3)cc2n1 [Example 63]
The EC50 of the first is 3.2-fold lower: 550 nM for the first, 1750 nM for the second. The first is the more potent here.

COc1ncc(CNc2nc(N)nc3cc(-c4ccn[nH]4)ccc23)cn1 [Example 48] and Nc1nc(NCc2ccnnc2)c2ccc(-c3ccn[nH]3)cc2n1 [Example 60] are within 1.5-fold of each other in EC50: 2920 nM for the first, 3490 nM for the second.

Going from Nc1nc(NCc2ccncn2)c2ccc(-c3ccn[nH]3)cc2n1 [Example 50] to Nc1nc(NCc2cnccn2)c2ccc(-c3ccn[nH]3)cc2n1 [Example 52], the EC50 falls from 1870 nM to 780 nM (2.4-fold). The second is the more potent here.

First: Nc1nc(N[C@H](CO)Cc2c[nH]cn2)c2ccc(-c3ccn[nH]3)cc2n1 [Example 54]
Second: Nc1nc(N[C@H]2CCCC[C@H]2O)c2ccc(-c3ccn[nH]3)cc2n1 [Example 67]
The EC50 of the first is 1.8-fold higher: 4010 nM for the first, 2260 nM for the second. The second is the more potent here.

Nc1nc(NC2CCS(=O)(=O)CC2)c2ccc(-c3ccn[nH]3)cc2n1 [Example 55] gave an EC50 of 19700 nM.
